{"source": "patent US20180193336A1", "about": "“SPRAY DRY FORMULATIONS” (Pulmokine, Inc., priority 2013, published 2018)", "key": {"[1]": {"experiment": "Body weights of treated rats", "type": "in vivo, rat", "details": "D4 and D8 groups; FIG. 19"}, "[2]": {"system": "PDGFBB stimulated AKT phosphorylation", "experiment": "In cell Western, PDGFBB stimulated AKT phosphorylation in human fetal lung fibroblasts", "type": "cell-based", "details": "for IC50: Fibroblast", "experimental": "HLFs were maintained in subculture at no more than 6 passages in DMEM with 5% FBS and 4 mM Glutamax at 37° C., 5% CO2. HLFs were plated and grown to 70-80% confluence in 96 well plates then serum-starved for 48 hours. […] Antibodies were detected using IRDye 680LT goat anti-mouse IgG and IRDye 800 W goat α-rabbit IgG conjugated antibodies. After washing, the signal was quantified using an Odyssey Infrared Imaging System (LI-COR). Phosphoprotein signal (800 nm) was normalized to total protein signal (700 nm) acquired from each well and experimental duplicates on same plate were averaged and reported."}, "[3]": {"system": "PDGFBB stimulated phosphorylation of ERK1 and ERK2", "experiment": "PDGFBB stimulated phosphorylation of ERK1 and ERK2 in human fetal lung fibroblasts", "type": "cell-based", "excerpt": "Data shown are mean±SEM. […] PK10453=structure 2; PK10571=structure 2a. Platelet derived growth factor receptor alpha=PDGFR-alpha=PDGFR-α=PDGF receptor alpha=PDGF alpha receptor. Platelet derived growth factor receptor beta=PDGFR-beta=PDGFRβ=PDGF receptor beta=PDGF beta receptor."}}, "note": "Like-named read-outs stand apart in the source and are kept apart here."}
{"smiles": "COc1cc(-c2cncc(N[C@@H](C)c3cccc(NC(=O)c4cncc(C)c4)c3)n2)ccc1O", "note": "[PK10453, (S)—N-(3-(1-((6-(4-hydroxy-β-methoxyphenyl)pyrazin-2yl)amino)ethyl)phenyl)-5-methylnicotinamide]", "values": [{"measurement": "body weight compared to vehicle", "setting": "[1]", "value": "trend to a slower rate of decline"}, {"measurement": "IC50", "setting": "[2]; human fetal lung fibroblasts, 10 ng/ml PDGFBB, read-out: IC50 for PDGFBB stimulated AKT phosphorylation at Ser473", "value": 130, "unit": "nM"}, {"measurement": "IC50", "setting": "[2]; human fetal lung fibroblasts, 10 ng/ml PDGFBB, read-out: IC50 for PDGFBB stimulated AKT phosphorylation at Thr308", "value": 430, "unit": "nM"}, {"measurement": "IC50", "setting": "[2]; human fetal lung fibroblasts, legend of FIG. 2 PANEL C, read-out: IC50 for PDGFBB stimulation of pAKT(Ser473)", "value": 130, "unit": "nM"}, {"measurement": "IC50", "setting": "[2]; Homo sapiens, FIG. 26, each concentration in duplicate, read-out: IC50, PDGF BB stimulated pAKT in human lung fibroblasts", "value": 150, "unit": "nM"}, {"measurement": "IC50 for inhibiting PDGFBB stimulated AKT phosphorylation relative to imatinib", "setting": "[2]; fetal human lung fibroblasts, FIG. 18", "value": "lower IC50 concentration compared to imatinib"}, {"measurement": "decrease of PDGF BB stimulated ppERK1 and ppERK2 relative to imatinib", "setting": "[3]; 1 uM and 10 uM", "value": "more effective"}, {"measurement": "decrease of PDGFBB stimulated ppERK1 formation", "setting": "[3]; 1 uM, PDGF BB 10 ng/ml", "value": "effective"}, {"measurement": "ratio diphosphorylated ERK2 to total ERK2 (ppERK2/ERK2)", "setting": "[3]; PDGFAA or PDGFBB stimulation (10 ng/ml), 1 uM and 10 uM", "value": "significantly decreased"}, {"measurement": "ratio diphosphorylated ERK1 to total ERK1 (ppERK1/ERK1)", "setting": "[3]; PDGFAA or PDGFBB stimulation, 1 μM and 10 μM", "value": "significantly decreased"}]}
